Measured values as given in ChEMBL document CHEMBL2440092, “Investigation of aryl halides as ketone bioisosteres: refinement of potent and selective inhibitors of human cytochrome P450 19A1 (aromatase)” (Bioorg Med Chem Lett, 2013).

Target: T1, Aromatase (Homo sapiens, UniProt P11511)
T1 sequence (P11511 whole entry): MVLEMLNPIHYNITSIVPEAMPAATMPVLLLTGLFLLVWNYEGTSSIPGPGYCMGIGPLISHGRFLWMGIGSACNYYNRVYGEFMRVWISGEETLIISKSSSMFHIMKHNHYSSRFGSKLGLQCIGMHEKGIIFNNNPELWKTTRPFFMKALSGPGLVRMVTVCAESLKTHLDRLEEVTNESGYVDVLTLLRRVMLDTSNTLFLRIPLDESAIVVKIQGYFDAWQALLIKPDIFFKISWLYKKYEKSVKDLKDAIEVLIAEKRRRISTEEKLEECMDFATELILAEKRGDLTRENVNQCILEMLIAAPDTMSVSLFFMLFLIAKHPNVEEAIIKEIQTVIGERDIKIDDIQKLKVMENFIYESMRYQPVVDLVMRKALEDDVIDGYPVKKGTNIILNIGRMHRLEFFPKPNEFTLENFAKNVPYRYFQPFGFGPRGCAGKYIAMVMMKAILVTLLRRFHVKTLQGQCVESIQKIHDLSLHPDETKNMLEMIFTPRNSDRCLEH
Description: Inhibition of recombinant human aromatase using O-dibenzylfluorescein benzyl ester as substrate by fluorometric assay

SMILES	Ki
CC(=O)O[C@@H](c1ccc(F)cc1)[C@H](Cn1ccnn1)c1ccccc1	0.35 µM
CC(=O)O[C@@H](c1ccccc1)[C@@H](Cn1ccnn1)c1ccc(Br)cc1	0.237 µM
CC(=O)O[C@@H](c1ccc(F)cc1)[C@@H](Cn1ccnn1)c1ccccc1	0.11 µM
COCO[C@@H](c1ccccc1)[C@H](Cn1ccnn1)c1ccc(Br)cc1	0.02 µM
COCO[C@@H](c1ccc(F)cc1)[C@@H](Cn1ccnn1)c1ccccc1	0.08 µM
CC(=O)O[C@@H](c1ccccc1)[C@H](Cn1ccnn1)c1ccc(Br)cc1	0.647 µM
COCO[C@@H](c1ccc(Br)cc1)[C@@H](Cn1ccnn1)c1ccccc1	0.02 µM
COCO[C@@H](c1ccc(Br)cc1)[C@H](Cn1ccnn1)c1ccccc1	0.07 µM
COCO[C@@H](c1ccccc1)[C@@H](Cn1ccnn1)c1ccc(Br)cc1	0.111 µM
O[C@@H](c1ccc(F)cc1)[C@@H](Cn1ccnn1)c1ccccc1	0.33 µM

Next, values leading:

Ki	SMILES
0.09 µM	CC(=O)O[C@@H](c1ccc(Br)cc1)[C@@H](Cn1ccnn1)c1ccccc1
0.82 µM	O[C@@H](c1ccccc1)[C@@H](Cn1ccnn1)c1ccc(Br)cc1
0.841 µM	O[C@@H](c1ccccc1)[C@H](Cn1ccnn1)c1ccc(Br)cc1
0.2 µM	O[C@@H](c1ccc(F)cc1)[C@H](Cn1ccnn1)c1ccccc1
0.16 µM	COCO[C@@H](c1ccc(F)cc1)[C@H](Cn1ccnn1)c1ccccc1
